Data on twelve compounds can be found in patent publication EP0335369A2, “New anthracycline derivatives and processes for the preparation of the same” (priority 1988, dated 1989).

In brackets after ≈: the same amount, converted by molar mass. Like-named read-outs stand apart in the source and are kept apart here.

Series [1] is described as follows: Solubility in phosphate buffer solution of pH 7.4 at room temperature. The format is physicochemical. The note with it: for solubility: room temperature; for solubility in the phosphate buffer solution (in words): phosphate buffer solution (0.05 M KH2PO4-NaOH) at pH 7.4.
Series [2] relates to Leukemia L-1210 cells. The series can be described thus: Test 3: antitumor activity against leukemia induced in CDF1 mice by Leukemia L-1210 cells (procedure of Test 1 repeated). The series is classed as in vivo. The conditions noted are these: intraperitoneally once per day for 9 consecutive days, observation 60 days. The procedure: Antitumor activities against leukemia in CDF1 mice as induced by mouse leukemia, Leukemia L-1210 cells
To evaluate the antitumor effects of the compounds of the formula (I') according to the sixth aspect of this invention against experimental tumors in animals, the procedure of Test 1 given hereinbefore is repeated. Thus, CDF1 mice were intraperitoneally transplanted with cells of Leukemia L-1210 (at a dose of 1 x 10^5 cells/mouse). After an elapsed time of 24 hours from the tumor transplantation, a test compound of the formula (I') of the sixth aspect invention to be evaluated was administered intraperitoneally for 9 consecutive days once per day. Observation was made for 60 day, where survival days of each mouse tested were recorded. In comparison with the control test wherein mice were treated with the administration of physiological saline alone, the increase (%) in the life-span of the treated mice was calculated as T/C %, where T is the mean survival days of the treated animals and C is the mean survival days of the untreated control animals. For the comparison, daunomycin and adriamycin were also tested in the same manner.

The test system of series [3] is mouse leukemia P 388/S (sensitive). The series can be described thus: Test 2: growth inhibition of cultured mouse leukemia cells, 72 hours incubation. The format is cell-based. The note with it: P 388/S cells. Here is the method:
(§1) 7-O-(2,6-Dideoxy-2-fluoro-«-L-mannopyranosyl)adriamycinone 14-O-hemipimelate, which is a compounds according to this invention, was then added at varying concentrations. The incubation of the cells was thereafter continued for 72 hours to measure the 50% inhibitory concentration (ICso, ng/m t) of the test compound against the growth of the tunmor cells.

A further series deals with P388/ADR (resistant). Described as above. The conditions noted are these: P 388/ADR cells. The format is cell-based. The procedure:
as §1

In series [4] the test system is Leukemia L-1210 cells. Put plainly: Test 1: antitumor activity against leukemia induced in CDF1 mice by Leukemia L-1210 cells (life-span increase). The note with it: intraperitoneally once per day for 9 consecutive days, observation 60 days. The format is in vivo. Here is the method: Antitumor activities against leukemia in CDF, mice as induced by mouse leukemia, Leukemia L-1210 cells
After an elapsed time of 24 hours, a compounds of the formula (I) of this invention to be tested was administered intraperitoneally for 9 consecutive days once per day. Observation was made for 60 days, where survival days of each mouse tested were recorded. In comparison with the control test wherein mice were treated with the administration of physiological saline alone, the increase (%) in the life-span of the treated mice was calculated as T/C %, where T is the mean survival days of the treated animals and C is the mean survival days of the untreated control animals. For the comparison, daunomycin and adriamycin were also tested in the same manner.

Where [5] appears, read: aqueous buffer, compounds (Ic), phosphate buffer solution of pH 7.4 (0.05 M KH2PO4-NaOH), read-out: Solubility.
The mark [6] stands for this setting: aqueous buffer, compounds (I'-c) or (I'-d), phosphate buffer solution of pH 7.4 (0.05M KH2PO4-NaOH), read-out: Solubility.

Consider “4-demethoxy-7-O-(2,6-dideoxy-2-fluoro-α-L-talopyranosyl)adriamycinone 14-0-hemisuberate [Example 19]”, for which the “solubility” value in series [1] (compounds (I'-c) or (I'-d), phosphate buffer solution of pH 7.4 (0.05M KH2PO4-NaOH)) is less than 1 mg/mL. Further, the “solubility in the phosphate buffer solution (in words)” value (from here on “solubility … (in words)”) in series [1] is “scarcely soluble”. Further, the “% Increase in life-span (T/C, %)” value in the series with Leukemia L-1210 cells [2] (Dose 0.04 mg/kg/day) is given as 93%; with Leukemia L-1210 cells [2] (Dose 0.08 mg/kg/day), 96%; in the series on Leukemia L-1210 cells [2] (Dose 0.15 mg/kg/day), 138%; in the series with Leukemia L-1210 cells [2] (Dose 0.3 mg/kg/day), 175%; in the series with Leukemia L-1210 cells [2] (Dose 0.6 mg/kg/day), 245%; with Leukemia L-1210 cells [2] (Dose 1.25 mg/kg/day), 158%.

In the case of `COc1cccc2c1C(=O)c1c(O)c3c(c(O)c1C2=O)C[C@@](O)(C(=O)COC(=O)CCC(=O)O)C[C@@H]3O[C@@H]1O[C@@H](C)[C@H](O)[C@@H](O)[C@H]1F` [Example 6, 7-O-(2,6-dideoxy-2-fluoro-α-L-mannopyranosyl)adriamycinone 14-0-hemisuccinate], the solubility in series [1] (setting [5]) is 25 mg/mL (≈ 37.7 mM).

For the compound `COc1cccc2c1C(=O)c1c(O)c3c(c(O)c1C2=O)C[C@@](O)(C(=O)COC(=O)CCCC(=O)O)C[C@@H]3O[C@@H]1O[C@@H](C)[C@H](O)[C@@H](O)[C@H]1F` [Example 7, 7-0-(2,6-dideoxy-2-fluoro-a-L-. mannopyranosyl)adriamycinone 14-0-hemiglutarate], the solubility in series [1] (setting [5]) worked out at 28 mg/mL (≈ 41.4 mM).

As for `COc1cccc2c1C(=O)c1c(O)c3c(c(O)c1C2=O)C[C@@](O)(C(=O)COC(=O)CCCCC(=O)O)C[C@@H]3O[C@@H]1O[C@@H](C)[C@H](O)[C@@H](O)[C@H]1F` [Example 8, 7-0-(2,6-dideoxy-2-fluoro-a-L-mannopyranosyl)adriamycinone 14-0-hemiadipate], the solubility in series [1] (setting [5]) amounted to 32 mg/mL (≈ 46.3 mM).

Take `COc1cccc2c1C(=O)c1c(O)c3c(c(O)c1C2=O)C[C@@](O)(C(=O)COC(=O)CCCCCC(=O)O)C[C@@H]3O[C@@H]1O[C@@H](C)[C@H](O)[C@@H](O)[C@H]1F` [Example 9]: the solubility in series [1] (setting [5]) was found to be 32 mg/mL (≈ 45.4 mM). For the same compound, the IC50 in series [3] (Mus musculus, P388/S, read-out: IC50 (ng/mℓ) P 388/S) is 0.3 ng/mL (≈ 4.26e-07 mM); with P388/ADR (resistant) (Mus musculus, P388/ADR, read-out: IC50 (ng/mℓ) P 388/ADR), 39.8 ng/mL (≈ 5.65e-05 mM). Moreover, the “% Increase in life-span (T/C, %)” value in the series on Leukemia L-1210 cells [4] (Dose 0.15 mg/kg/day) is on record as 123%; in the series on Leukemia L-1210 cells [4] (Dose 0.3 mg/kg/day), 274%; in the series with Leukemia L-1210 cells [4] (Dose 0.6 mg/kg/day) it was greater than 329%; with Leukemia L-1210 cells [4] (Dose 1.25 mg/kg/day), greater than 346%; with Leukemia L-1210 cells [4] (Dose 2.5 mg/kg/day) it was greater than 686%; with Leukemia L-1210 cells [4] (Dose 5 mg/kg/day), greater than 463%.

Consider `COc1cccc2c1C(=O)c1c(O)c3c(c(O)c1C2=O)C[C@@](O)(C(=O)COC(=O)CCCCCCC(=O)O)C[C@@H]3O[C@@H]1O[C@@H](C)[C@H](O)[C@@H](O)[C@H]1F` [Example 10, 7-O-(2,6-dideoxy-2-fluoro-α-L-mannopyranosyl)adriamycinone 14-0-hemisuberate], for which the solubility in series [1] (setting [5]) was 30 mg/mL (≈ 41.7 mM).

For the compound `C[C@@H]1O[C@@H](O[C@H]2C[C@](O)(C(=O)COC(=O)CCCCCC(=O)O)Cc3c(O)c4c(c(O)c32)C(=O)c2ccccc2C4=O)[C@H](F)[C@H](O)[C@H]1O` [Example 11, 7-O-(2,6-dideoxy-2-fluoro-a-L-mannopyranosyl)-4-demethoxyadriamycinone 14-0-hemipimelate], in series [1] (setting [5]), the solubility is less than 1 mg/mL. Moreover, the “% Increase in life-span (T/C, %)” value with Leukemia L-1210 cells [4] (Dose 0.15 mg/kg/day) is listed as 121%; in the series with Leukemia L-1210 cells [4] (Dose 0.3 mg/kg/day), greater than 363%; in the series on Leukemia L-1210 cells [4] (Dose 0.6 mg/kg/day), 175%; in the series on Leukemia L-1210 cells [4] (Dose 1.25 mg/kg/day), 111%.

For `CCCCC(=O)OCC(=O)[C@]1(O)Cc2c(O)c3c(c(O)c2[C@@H](O[C@@H]2O[C@@H](C)[C@@H](O)[C@@H](O)[C@H]2F)C1)C(=O)c1ccccc1C3=O` [Example 14, 4-demothoxy-7-O-(2,6-dideoxy-2-fluoro-α-L-talopyranosyl)adriamycinone 14-0-valerate], the solubility in series [1] (setting [6]) is less than 1 mg/mL.

Turning to `C[C@@H]1O[C@@H](O[C@H]2C[C@](O)(C(=O)COC(=O)CCCC(=O)O)Cc3c(O)c4c(c(O)c32)C(=O)c2ccccc2C4=O)[C@H](F)[C@H](O)[C@@H]1O` [Example 16, 4-demethoxy-7-O-(2,6-dideoxy-2-fluoro-α-L-talopyranosyl)adriamycinone 14-0-hemiglutarate], the solubility in series [1] (setting [6]) amounted to 10 mg/mL (≈ 15.5 mM). In addition, the “solubility … (in words)” value in series [1] is recorded as “soluble”.

For `C[C@@H]1O[C@@H](O[C@H]2C[C@](O)(C(=O)COC(=O)CCCCC(=O)O)Cc3c(O)c4c(c(O)c32)C(=O)c2ccccc2C4=O)[C@H](F)[C@H](O)[C@@H]1O` [Example 17, 4-demethoxy-7-O-(2,6-dideoxy-2-fluoro-α-L-talopyranosyl)adriamycinone 14-0-hemiadipate], in series [1] (setting [6]), the solubility came to 6 mg/mL (≈ 9.08 mM). In addition, the “% Increase in life-span (T/C, %)” value was 99% in the series with Leukemia L-1210 cells [2] (Dose 0.04 mg/kg/day); 99% with Leukemia L-1210 cells [2] (Dose 0.08 mg/kg/day); 130% in the series with Leukemia L-1210 cells [2] (Dose 0.15 mg/kg/day); 166% in the series on Leukemia L-1210 cells [2] (Dose 0.3 mg/kg/day); 242% in the series on Leukemia L-1210 cells [2] (Dose 0.6 mg/kg/day); greater than 296% in the series with Leukemia L-1210 cells [2] (Dose 1.25 mg/kg/day).

As for `C[C@@H]1O[C@@H](O[C@H]2C[C@](O)(C(=O)COC(=O)CCCCCC(=O)O)Cc3c(O)c4c(c(O)c32)C(=O)c2ccccc2C4=O)[C@H](F)[C@H](O)[C@@H]1O` [Example 18, 4-demethoxy-7-O-(2,6-dideoxy-2-fluoro-a-L-talopyranosyl)adriamycinone 14-0-hemipimelate], the solubility in series [1] (setting [6]) was less than 1 mg/mL. Besides, in series [1], the “solubility … (in words)” value is “scarcely soluble”.

On to `COc1cccc2c1C(=O)c1c(O)c3c(c(O)c1C2=O)C[C@@](O)(C(=O)COC(=O)CCCCCC(=O)O)C[C@@H]3O[C@@H]1O[C@@H](C)[C@@H](O)[C@@H](O)[C@H]1F` [Referential compound, 7-O-(2,6-dideoxy-2-fluoro-«-L-talopyranosyl)-adriamycinone 14-0-hemipimelate, reference compound], for which the “IC50 (ng/mℓ) P 388/S” value in series [3] came to 3.3 ng/mL (≈ 4.68e-06 mM). In addition, in the series on P388/ADR (resistant), the “IC50 (ng/mℓ) P 388/ADR” value was 485 ng/mL (≈ 0.000688 mM).
